Type in all cases: in vivo
What all share (conditions): 312 h, rate 250 g/ha, evaluated after 13 days, 100=total damage to plant, 0=no damage to plant

Assay [1] relates to Echinochloa crus-galli (ECHCG). Nature of the assay: Post-emergence herbicidal activity, glasshouse pot test. On the procedure: (§1) Seeds of a variety of test species were sown in standard soil in pots. After cultivation for one day (pre-emergence) or after 8 days cultivation (post-emergence) under controlled conditions in a glasshouse (at 24/16° C., day/night; 14 hours light; 65% humidity), the plants were sprayed with an aqueous spray solution derived from the formulation of the technical active ingredient in acetone/water (50:50) solution containing 0.5% Tween 20 (polyoxyethelyene sorbitan monolaurate, CAS RN 9005-64-5). The test plants were then grown in a glasshouse under controlled conditions in a glasshouse (at 24/16° C., day/night; 14 hours light; 65% humidity) and watered twice daily. After 13 days for pre and post-emergence, the test was evaluated (100=total damage to plant; 0=no damage to plant). Test Plants: Lolium perenne (LOLPE), Alopecurus myosuroides (ALOMY), Echinochloa crus-galli (ECHCG), and Avena fatua (AVEFA). Post-Emergence Activity

Assay [2] relates to Avena fatua (AVEFA). The assay is described as above. As for the experimental part: as §1
Assay [3] concerns Alopecurus myosuroides (ALOMY). Described as above. As for the experimental part: as §1
Assay [4] has as its system Lolium perenne (LOLPE). Described as above. As for the experimental part: as §1
Assay [5] has as its system Echinochloa crus-galli (ECHCG). Nature of the assay: Pre-emergence herbicidal activity, glasshouse pot test. As for the experimental part:
as §1, with “Pre-Emergence” for “Post-Emergence”

For assay [6], the system named is Avena fatua (AVEFA). The assay is described as above. As for the experimental part: as §1, with “Pre-Emergence” for “Post-Emergence”
In assay [7] the test system is Alopecurus myosuroides (ALOMY). The assay is described as above. As for the experimental part:
as §1, with “Pre-Emergence” for “Post-Emergence”

Assay [8] concerns Lolium perenne (LOLPE). The assay is described as above. As for the experimental part: as §1, with “Pre-Emergence” for “Post-Emergence”

For the compound `CCc1ccc(Oc2ccc(Cl)cc2)cc1C1=C(O)[C@H]2[C@@H](C1=O)[C@@H]1CC[C@H]2O1` [Compound A-1, meso-(1R,2S,6R,7S)-4-[5-(4-chlorophenoxy)-2-ethylphenyl]-10-oxatricyclo[5.2.1.0^2,6]decane-3,5-dione], the pest or weed control at 250 g/ha in assay [1] is 100%; with Avena fatua (AVEFA) [2], 80%; in assay [3], 100%; with Lolium perenne (LOLPE) [4], 80%; in assay [5], 70%; in the assay with Avena fatua (AVEFA) [6] it was 70%. The pest or weed control at 250 g/ha (in assay [7]; in the assay on Lolium perenne (LOLPE) [8]) was 70% in each case.
Regarding `CCc1ccc(Oc2ccc(Br)cc2F)cc1C1=C(O)[C@H]2[C@@H](C1=O)[C@@H]1CC[C@H]2O1` [Compound A-2], the pest or weed control at 250 g/ha is 100% in assay [1]; 100% with Avena fatua (AVEFA) [2]; 100% in assay [3]; 100% in the assay with Lolium perenne (LOLPE) [4]; 60% in assay [5]; 30% in the assay with Avena fatua (AVEFA) [6]. The pest or weed control at 250 g/ha (in assay [7]; in the assay with Lolium perenne (LOLPE) [8]) was 60% in each case.
In the case of `CCc1ccc(Oc2ccc(Br)cc2C)cc1C1=C(O)[C@H]2[C@@H](C1=O)[C@@H]1CC[C@H]2O1` [Compound A-3], the pest or weed control at 250 g/ha in assay [1] turned out to be 100%; in the assay on Avena fatua (AVEFA) [2], 90%; in assay [3] it was 90%; in the assay on Lolium perenne (LOLPE) [4], 70%; in assay [5] it was 90%; with Avena fatua (AVEFA) [6] it was 30%. Besides, the pest or weed control at 250 g/ha in assay [7] stood at 60%; in the assay on Lolium perenne (LOLPE) [8] it was 70%.
Turning to `CCc1ccc(Oc2ccc(Br)cc2)cc1C1=C(O)[C@H]2[C@@H](C1=O)[C@@H]1CC[C@H]2O1` [Compound A-4], the pest or weed control at 250 g/ha came to 100% in assay [1]; 100% in the assay on Avena fatua (AVEFA) [2]; 100% in assay [3]; 90% in the assay on Lolium perenne (LOLPE) [4]; 100% in assay [5]; 90% in the assay with Avena fatua (AVEFA) [6]. Further, the pest or weed control at 250 g/ha in assay [7] worked out at 80%; in the assay on Lolium perenne (LOLPE) [8], 90%.
Turning to `CCc1ccc(Oc2ccccc2F)cc1C1=C(O)[C@H]2[C@@H](C1=O)[C@@H]1CC[C@H]2O1` [Compound A-5], the pest or weed control at 250 g/ha in assay [1] was found to be 80%; with Avena fatua (AVEFA) [2] it was 10%; in assay [3] it was 30%; in the assay on Lolium perenne (LOLPE) [4] it was 30%; in assay [5], 80%; in the assay on Avena fatua (AVEFA) [6], 0%. Besides, the pest or weed control at 250 g/ha in assay [7] amounted to 30%; in the assay with Lolium perenne (LOLPE) [8], 40%.
Regarding `CCc1ccc(Oc2ccc(Cl)cc2F)cc1C1=C(O)[C@H]2[C@@H](C1=O)[C@@H]1CC[C@H]2O1` [Compound A-6], the pest or weed control at 250 g/ha was determined as 100% in assay [1]; 90% with Avena fatua (AVEFA) [2]; 80% in assay [3]; 90% in the assay with Lolium perenne (LOLPE) [4]; 100% in assay [5]; 90% in the assay with Avena fatua (AVEFA) [6]. Also, the pest or weed control at 250 g/ha (in assay [7]; in the assay on Lolium perenne (LOLPE) [8]) was 100% throughout.
As to `CCc1ccc(Oc2cccc(Cl)c2)cc1C1=C(O)[C@H]2[C@@H](C1=O)[C@@H]1CC[C@H]2O1` [Compound A-7], the pest or weed control at 250 g/ha in assay [1] turned out to be 100%; with Avena fatua (AVEFA) [2], 80%; in assay [3] it was 60%; in the assay on Lolium perenne (LOLPE) [4], 60%; in assay [5], 70%; in the assay with Avena fatua (AVEFA) [6], 50%. The pest or weed control at 250 g/ha (in assay [7]; in the assay with Lolium perenne (LOLPE) [8]) was 60% in each case.
With `CCc1ccc(Oc2ccccc2Cl)cc1C1=C(O)[C@H]2[C@@H](C1=O)[C@@H]1CC[C@H]2O1` [Compound A-8], the pest or weed control at 250 g/ha in assay [1] came to 70%; with Avena fatua (AVEFA) [2], 20%; in assay [3], 20%; in the assay on Lolium perenne (LOLPE) [4], 20%; in assay [5], 40%; in the assay on Avena fatua (AVEFA) [6], 0%. For the same compound, the values for the pest or weed control at 250 g/ha (in assay [7]; with Lolium perenne (LOLPE) [8]) were 0% and 40%, respectively.
`CCc1ccc(Oc2ccc(Br)cc2Cl)cc1C1=C(O)[C@H]2[C@@H](C1=O)[C@@H]1CC[C@H]2O1` [Compound A-9]: the pest or weed control at 250 g/ha in assay [1] was 90%; with Avena fatua (AVEFA) [2], 100%; in assay [3], 90%; with Lolium perenne (LOLPE) [4] it was 70%; in assay [5], 70%; in the assay with Avena fatua (AVEFA) [6], 90%. The pest or weed control at 250 g/ha was found to be 80% in assay [7] and 100% in the assay with Lolium perenne (LOLPE) [8].
Turning to `CCc1ccc(Oc2cnc3cc(Cl)ccc3n2)cc1C1=C(O)[C@H]2[C@H]3CC[C@H](C3)[C@H]2C1=O` [Compound A-10, meso-(3aS,4S,7R,7aR)-2-[5-(6-chloroquinoxalin-2-yloxy)-2-ethylphenyl]hexahydro-4,7-methanoindene-1,3-dione], the pest or weed control at 250 g/ha in assay [1] is 90%; in the assay with Avena fatua (AVEFA) [2], 100%; in assay [3], 90%; in the assay on Lolium perenne (LOLPE) [4], 90%; in assay [5] it was 60%; in the assay with Avena fatua (AVEFA) [6] it was 20%. Besides, the pest or weed control at 250 g/ha in assay [7] is 40%; with Lolium perenne (LOLPE) [8], 30%.
With `CCc1ccc(Oc2ncc(Cl)cc2F)cc1C1=C(O)[C@H]2[C@H]3CC[C@H](C3)[C@H]2C1=O` [Compound A-11], the pest or weed control at 250 g/ha in assay [1] was 100%; in the assay with Avena fatua (AVEFA) [2], 90%; in assay [3], 80%; with Lolium perenne (LOLPE) [4], 70%; in assay [5], 100%; with Avena fatua (AVEFA) [6] it was 50%. For the same compound, the pest or weed control at 250 g/ha in assay [7] is 30%; in the assay with Lolium perenne (LOLPE) [8], 80%.
For `CCc1ccc(Oc2nc3ccccc3s2)cc1C1=C(O)[C@H]2[C@H]3CC[C@H](C3)[C@H]2C1=O` [Compound A-12], the pest or weed control at 250 g/ha came to 100% in assay [1]; 50% in the assay with Avena fatua (AVEFA) [2]; 100% in assay [3]; 70% in the assay on Lolium perenne (LOLPE) [4]; 70% in assay [5]; 30% in the assay on Avena fatua (AVEFA) [6]. For the same compound, the pest or weed control at 250 g/ha in assay [7] was 60%; in the assay with Lolium perenne (LOLPE) [8] it was 70%.
As to `CCc1ccc(Oc2cnc3cc(Cl)ccc3n2)cc1C1=C(O)C2C(C1=O)[C@H]1CC[C@@H]2CC1` (stereo partly drawn) [Compound A-13, 2-[5-(6-chloroquinoxalin-2-yloxy)-2-ethylphenyl]hexahydro-4,7-ethanoindene-1,3-dione], the pest or weed control at 250 g/ha in assay [1] amounted to 100%; in the assay on Avena fatua (AVEFA) [2] it was 100%; in assay [3], 90%; with Lolium perenne (LOLPE) [4] it was 90%; in assay [5], 80%; in the assay on Avena fatua (AVEFA) [6] it was 20%. For the same compound, the pest or weed control at 250 g/ha in assay [7] was found to be 50%; in the assay with Lolium perenne (LOLPE) [8] it was 60%.
Regarding `CCc1ccc(Oc2ncc(Cl)cc2F)cc1C1=C(O)C2C(C1=O)[C@H]1CC[C@@H]2CC1` (stereo partly drawn) [Compound A-14], the pest or weed control at 250 g/ha in assay [1] amounted to 100%; in the assay on Avena fatua (AVEFA) [2], 100%; in assay [3], 100%; with Lolium perenne (LOLPE) [4], 90%; in assay [5] it was 100%; in the assay with Avena fatua (AVEFA) [6], 60%. In addition, the pest or weed control at 250 g/ha in assay [7] was found to be 60%; in the assay with Lolium perenne (LOLPE) [8], 90%.
`CCc1ccc(Oc2ccc(C#N)cc2)cc1C1=C(O)C2C(C1=O)[C@H]1CC[C@@H]2CC1` (stereo partly drawn) [Compound A-15]: the pest or weed control at 250 g/ha was found to be 80% in assay [1]; 30% in the assay with Avena fatua (AVEFA) [2]; 30% in assay [3]; 30% with Lolium perenne (LOLPE) [4]; 100% in assay [5]; 0% in the assay on Avena fatua (AVEFA) [6]. The pest or weed control at 250 g/ha in assay [7] is 30%; in the assay with Lolium perenne (LOLPE) [8], 10%.

As a reminder, the pest or weed control is the degree to which the test organism was suppressed or injured, in per cent. A lower pest or weed control goes with weak suppression.
